Laboratory results taken from article PMC6224419, “Structural Studies based on two Lysine Dioxygenases with Distinct Regioselectivity Brings Insights Into Enzyme Specificity within the Clavaminate Synthase-Like Family” (Scientific Reports, 2018).
Like-named read-outs stand apart in the source and are kept apart here.

Columns and labels:
KDO1 = target: T1, KDO1 (Catenulispora acidiphila, UniProt C7QJ42); assay type: binding; details: active site
T1 construct: gene Caci_0231; hexa-histidine tail (pET-22b(+)), E. coli BL21(DE3); dimer in solution; first ordered residue Glu30
T1 sequence (C7QJ42 1-358): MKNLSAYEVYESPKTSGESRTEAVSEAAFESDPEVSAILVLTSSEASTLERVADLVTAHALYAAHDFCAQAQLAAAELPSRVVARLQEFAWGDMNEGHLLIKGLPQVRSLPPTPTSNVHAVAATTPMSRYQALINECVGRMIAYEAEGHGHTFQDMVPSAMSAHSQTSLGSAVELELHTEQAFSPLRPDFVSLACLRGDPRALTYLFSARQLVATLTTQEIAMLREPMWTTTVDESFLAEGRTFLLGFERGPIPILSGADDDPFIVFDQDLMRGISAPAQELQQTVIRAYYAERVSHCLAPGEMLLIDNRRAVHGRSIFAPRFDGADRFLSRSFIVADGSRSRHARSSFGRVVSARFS

KDO5 = target: T2, KDO5 (Flavobacterium sp. CF136, UniProt J3BZS6); test: X-ray crystal structure (soak); assay type: binding; details: active site
T2 construct: gene PMI10_03368; hexa-histidine tail (pET-22b(+)), E. coli BL21(DE3); tetramer in solution; first ordered residue Ala13

[1] = target: the molecule itself; test: SEC; analytic gel filtration on Superdex 200 Increase 10/300 GL, 100 µL purified protein, 50 mM Tris-HCl pH 8.0, 50 mM NaCl, 10% glycerol, 0.3 ml/min; oligomeric state from elution volume against a calibration curve; data not shown
[2] = FeSO4/dithionite soak, monomer C

NCCC[C@H](O)[C@H](N)C(=O)O [(3S)-3-hydroxy-L-lysine] was tested, and the “X-ray crystal structure (soak)” value (KDO1; FeSO4/dithionite soak with succinate, monomer B) was “The (3S)-3-hydroxy-L-lysine makes salt bridges with Glu180”.

For NCCCC[C@H](N)C(=O)O [L-lysine], the “X-ray crystal structure (soak)” value (KDO5; [2]) was “the carboxylate of L-lysine substrate is stabilized by salt bridges with the Arg338” and the “X-ray crystal structure (soak)” value (KDO1; [2]) was “In KDO1, the L-lysine complex shows a well ordered lysine in monomer C”.

In the case of O=C(O)CCC(=O)O [succinate], the “X-ray crystal structure (soak)” value (KDO5; crystals soaked with L-lysine and α-ketoglutarate, FeSO4/dithionite, monomer D) is reported as “The succinate resultant from the oxidative decarboxylation of the α-KG, makes H-bond Tyr193”.

For O=C(O)CCC(=O)C(=O)O [α-KG], the “X-ray crystal structure (soak)” value (KDO5; FeSO4/dithionite soak, bidentate to iron, monomer A) was “In α-KG bound structure, α-KG is best defined for monomer A” and the “X-ray crystal structure (soak)” value (KDO1; FeSO4/dithionite soak, bidentate to iron, monomer B) was “In the α-KG crystals, the structure shows a well ordered α-KG in monomer B”.

B1: KDO1 from Catenulispora acidiphila (L-lysine dioxygenase, C-3 regioselective) (enzyme, UniProt C7QJ42 1-358, looked up)
chain: T1 sequence (C7QJ42 1-358)
notes: KDO1, iron(II)/alpha-ketoacid-dependent lysine dioxygenase of Catenulispora acidiphila; Cloned into pET-22b(+) with a hexa-histidine tail; Dimer in solution; four molecules (two dimers) in the asymmetric unit; First ordered residue in the crystals is Glu30; also called K DiOxygenase 1; source: E. coli BL21(DE3), purified (Ni-NTA)
B1 was tested, and the “stoichiometry N” value [1] was 2.

B2: KDO5 from Flavobacterium sp. (L-lysine dioxygenase, C-4 regioselective) (enzyme, UniProt J3BZS6 1-372, looked up)
chain: MKSQSIMSVERSAETSLTLEIPTSPLIIKITQQERNILSNVGNLLVKAFGNYENPDYIASLHLHAFQLLPERITRILSQFGSDFSAEQYGAIVFQGLIEVDQDDLGPTPPNWQGADYGKLNKYGFICSLLHGAVPSKPVQYYAQRKGGGLLHAVIPDEKMAATQTGSGSKTDLFVHTEDAFLSNQADFLSFLYLRNEERVPSTLYSIRSHGKMNPVMKKLFEPIYQCPKDANYNDEDVANSGPTASVLYGNRELPFIRFDAAEQIFNENAGQTSEALGNLMDFWDEAKTLINSDYIPNSGDLIFVNNHLCAHGRSAFIAGQRIENGEIIKCERRQMLRMMSKTSLIHIRSVTRTDDPYFIMEEHLGKIFDLD
notes: KDO5, iron(II)/alpha-ketoacid-dependent lysine dioxygenase of Flavobacterium sp; Cloned into pET-22b(+) with a hexa-histidine tail; Tetramer in solution; four molecules (two dimers) in the asymmetric unit; First ordered residue in the crystals is Ala13; also called K DiOxygenase 5; source: E. coli BL21(DE3), purified (Ni-NTA)
For B2, the “stoichiometry N” value [1] was 4.
